In PubChem BioAssay AID248 (DTP/NCI, 2004):
Inconclusive results and toxic doses are left out. Cut-off read from the data, not from the text of the source: active = T/C of 150% or more; inactive = T/C below 125%.

Tested on: L1210 leukemia ip in BDF1 mice, survival T/C
Assay: NCI In Vivo Anticancer Drug Screen. Data for tumor model L1210 Leukemia (intraperitoneal) in B6D2F1 (BDF1) mice
Settings: endpoint: mean survival time, higher = longer survival
Summary of the method: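 Tumor cells were implanted, animals were treated, and survival was followed. The result divides the treated measurement by the vehicle-control measurement.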

[1] = dose: 100.0 mg/kg/injection, schedule: Q04DX003 (ip), vehicle: saline with Tween-80
[2] = dose: 200.0 mg/kg/injection, schedule: Q04DX003 (ip), vehicle: saline with Tween-80
[3] = dose: 400.0 mg/kg/injection, schedule: Q04DX003 (ip), vehicle: saline with Tween-80

Measured: T/C

COc1nn(C)c(=O)c2cccnc12
inactive: dose: 75.0 mg/kg/injection, schedule: Q01DX001 (ip), vehicle: saline 96 % of control | dose: 150.0 mg/kg/injection, schedule: Q01DX001 (ip), vehicle: saline 98 % of control

CCOc1ccc(C(=O)Cc2ccccc2)cc1
inactive: [1] 89 % of control | [2] 86 % of control | [3] 91 % of control

CCCCCC[Si](Br)(CCCCCC)CCCCCC
inactive: dose: 25.0 mg/kg/injection, schedule: Q01DX009 (ip), vehicle: saline 102 % of control | dose: 50.0 mg/kg/injection, schedule: Q01DX009 (ip), vehicle: saline 102 % of control | dose: 100.0 mg/kg/injection, schedule: Q01DX001 (ip), vehicle: saline 98 % of control | dose: 100.0 mg/kg/injection, schedule: Q01DX009 (ip), vehicle: saline 98 % of control | dose: 200.0 mg/kg/injection, schedule: Q01DX001 (ip), vehicle: saline 93 % of control | dose: 400.0 mg/kg/injection, schedule: Q01DX001 (ip), vehicle: saline 96 % of control

CSC(=N)c1cccc(OCc2ccccc2)c1
inactive: dose: 100.0 mg/kg/injection, schedule: Q01DX009 (ip), vehicle: Klucel (hydroxypropylcellulose) (HPC) 113 % of control | dose: 100.0 mg/kg/injection, schedule: Q04DX002 (ip), vehicle: Klucel (hydroxypropylcellulose) (HPC) 100 % of control | dose: 100.0 mg/kg/injection, schedule: Q04DX002 (ip), vehicle: saline 102 % of control | dose: 200.0 mg/kg/injection, schedule: Q01DX009 (ip), vehicle: Klucel (hydroxypropylcellulose) (HPC) 96 % of control | dose: 200.0 mg/kg/injection, schedule: Q04DX002 (ip), vehicle: Klucel (hydroxypropylcellulose) (HPC) 103 % of control | dose: 200.0 mg/kg/injection, schedule: Q04DX002 (ip), vehicle: saline 102 % of control | dose: 400.0 mg/kg/injection, schedule: Q04DX002 (ip), vehicle: Klucel (hydroxypropylcellulose) (HPC) 94 % of control | dose: 400.0 mg/kg/injection, schedule: Q04DX002 (ip), vehicle: saline 102 % of control

N#CC1=C(N)CCCC1
inactive: [1] 104 % of control

O=[N+]([O-])c1cnccc1/C=C\c1ccccc1
inactive: dose: 100.0 mg/kg/injection, schedule: Q01DX001 (ip), vehicle: Klucel (hydroxypropylcellulose) (HPC) 86 % of control | dose: 200.0 mg/kg/injection, schedule: Q01DX001 (ip), vehicle: Klucel (hydroxypropylcellulose) (HPC) 105 % of control | dose: 400.0 mg/kg/injection, schedule: Q01DX001 (ip), vehicle: Klucel (hydroxypropylcellulose) (HPC) 94 % of control

Nc1ccc(O)c2ncccc12
inactive: dose: 6.25 mg/kg/injection, schedule: Q01DX009 (ip), vehicle: saline 95 % of control | dose: 12.5 mg/kg/injection, schedule: Q01DX009 (ip), vehicle: saline 92 % of control | dose: 50.0 mg/kg/injection, schedule: Q01DX001 (ip), vehicle: saline 98 % of control

O=C(NCCBr)NC1CC1c1ccccc1 (configuration not stated)
inactive: dose: 20.0 mg/kg/injection, schedule: Q04DX003 (ip), vehicle: Klucel (hydroxypropylcellulose) (HPC) 117 % of control | dose: 40.0 mg/kg/injection, schedule: Q04DX003 (ip), vehicle: Klucel (hydroxypropylcellulose) (HPC) 101 % of control | dose: 80.0 mg/kg/injection, schedule: Q04DX003 (ip), vehicle: Klucel (hydroxypropylcellulose) (HPC) 93 % of control | dose: 100.0 mg/kg/injection, schedule: Q04DX003 (ip), vehicle: Klucel (hydroxypropylcellulose) (HPC) 118 % of control

CC(=O)[O][Hg][CH]1CCCCC1O (configuration not stated)
inactive: dose: 5.0 mg/kg/injection, schedule: Q01DX001 (ip), vehicle: saline 103 % of control | dose: 10.0 mg/kg/injection, schedule: Q01DX001 (ip), vehicle: saline 95 % of control | dose: 12.3 mg/kg/injection, schedule: Q01DX009 (ip), vehicle: saline with Tween-80 106 % of control | dose: 20.0 mg/kg/injection, schedule: Q01DX001 (ip), vehicle: saline 97 % of control | dose: 40.0 mg/kg/injection, schedule: Q01DX001 (ip), vehicle: saline 95 % of control | dose: 80.0 mg/kg/injection, schedule: Q01DX001 (ip), vehicle: saline 102 % of control

O=C(N/N=C/c1[nH]c(=S)[nH]c(=O)c1Cc1ccc(Cl)cc1)c1ccccc1
inactive: dose: 100.0 mg/kg/injection, schedule: Q01DX001 (ip), vehicle: saline with Tween-80 96 % of control | dose: 200.0 mg/kg/injection, schedule: Q01DX001 (ip), vehicle: saline with Tween-80 92 % of control | dose: 400.0 mg/kg/injection, schedule: Q01DX001 (ip), vehicle: saline with Tween-80 123 % of control

CCCCCCCC(=O)Nc1ccc(C)c(C)c1
inactive: [1] 93 % of control | [2] 98 % of control | [3] 93 % of control
